Reference: patent US11344601B2, “Tumor microenvironment-related target TAK1 and application thereof in inhibition of tumor” (Shanghai Institutes for Biological Sciences, Chinese …, priority 2017, dated 2022)
“And” between values parts separate entries of the source, which are not always exact repeats. Equal values may be shown once.

Tests used:
PSC27 cells = assay: DNA damage response foci, colony formation, cell cycle arrest and SA-β-Gal in PSC27 cells; type: cell-based, human
Experimental: Experimental Treatment In Vitro • 100 nM docetaxel (DTX), 100 nM paclitaxel (PTX), 200 nM vincristine (VCR), 50 μg/ml bleomycin (BLEO), 1 μM mitoxantrone (MIT), or 10 Gy ^137CS ionizating radiation (γ-radiation at 743 rad/min, RAD) was added to the culture medium when PSC27 cells grown to 80% (PSC27-Pre) to produce cell damage. After drug treatment for 6 hours, the cells were simply washed by PBS for 3 times and kept in the culture medium for 7 to 10 days, followed by subsequent experiments. […] Immunofluorescence and Histochemical Analysis • Mouse monoclonal antibody anti-phospho-Histone H2A.X (Ser139) (clone JBW301, Millipore) or mouse monoclonal antibody anti-Phosphor-53BP1 (Cat #sc-135748, Santa Cruz), and secondary antibody Alexa Fluor® 488 (or 594)-conjugated F(ab′)2 were added sequentially to slides on which cells were fixed. Nuclei were counterstained with 2 μg/ml of 4′,6-diamidino-2-phenylindole (DAPI). The most representative image was selected from the 3 observation fields for data analysis and result presentation. FV1000 laser scanning confocal microscopy (Olympus) was used to obtain cellular confocal fluorescence images to determine the extent of DNA damage. • Antibody anti-TAK1 used for histological IHC staining in clinical prostate, non-small cell lung cancer patients and breast cancer patients, was purchased from Proteintech, idib.

[1] = system: prostate-derived stromal cell line PSC27 and epithelial cancer cell line PC3 xenograft tumors; assay: Preclinical chemotherapy trial, subcutaneous PC3/PSC27 tissue-recombinant tumors, terminal tumor volume; type: in vivo, ICR-SCID mice; settings: for further decrease in terminal tumor volume: inhibitor combined with mitoxantrone (MIT) vs mitoxantrone alone (group 8 vs group 6); for decrease in terminal tumor volume: mitoxantrone alone vs no drug (group 6 vs group 5)
Experimental: All experimental mouse experiments were carried out in strict accordance with the relevant regulations of the Institutional animal care and use committee (IACUC) of the shanghai Institute of Life Sciences of the Chinese Academy of Sciences. ICR-SCID mice at an age of about 6 weeks (about 25 g in body weight) were used in this patent-related animal experiment. Stromal cells PSC27 and epithelial cells were mixed at a ratio of 1:4, with each implant containing 1.25×10^6 cells for tissue recombination. The transplant tumor was implanted into mice subcutaneously, and the animals were euthanized at the end of Week 8 after transplantation. The tumor volume was calculated according to the following formula: V=(π/6)×((l+w)/2)^3 (V, volume; l, length; w, width). Similarly, lung and breast cancer xenograft tumors were formed by tissue recombination with A549 (non-small cell lung cancer cell line) and W138 (lung fibroblast line), MDA-MB-231 (triple negative breast cancer cell line) and HBF1203 (breast fibroblast line), respectively.
In the preclinical chemotherapy trial, mice subcutaneously transplanted with tumors were fed standard experimental diet. After 2 weeks, the chemotherapeutics mitoxantrone (dose of 0.2 mg/kg) and/or SASP inhibitors (500 μl, dose of 10 mg/kg, RAD001, SB203580 and 5Z-7 were purchased from Tocris; LYTAK, purchased from Lilly Co ((Indianapolis, Ind.), 5 mg/kg) were administrated intraperitoneally. The timepoint was the first day of Week 3, 5, 7, and the whole course of treatment was composed of three cycles of administration, each cycle lasted for 2 weeks. After the course of treatment, mouse […] was collected for tumor measurement and histological analysis. Each mouse received cumulatively 0.6 mg mitoxantrone/kg body weight and 30 mg SASP inhibitor/kg body (15 mg/kg body weight for LYTAK1). Mice xenografted with lung cancer and breast cancer tumor received bleomycin (totally 0.3 mg/kg) and doxorubicin (totally 0.2 mg/kg), respectively. The timepoints and frequency were same as the administration of mitoxantrone. The chemotherapeutic trial was performed until the end of Week 8, and the mice were dissected immediately after death. The transplant tumors were collected and used for analysis in a pathological system.
In order to simulate clinical conditions as much as possible, the present inventor inoculated the subcutaneous site of immunodeficient mice with an admixture of prostate-derived stromal cell line PSC27 and epithelial cancer cell line PC3. The mice subsequently underwent a regimen of 8-week preclinical chemotherapy, which included three single- or double-drug treatments based on a series of pre-experimental data (FIGS. 64 and 65). In the absence of stromal cells, PC3 cells were still able to form tumors under screening pressure caused by chemotherapeutics, though their volumes were smaller than that generated in the case of concurrent inoculation of stromal cells and cancer cells. Such difference also objectively confirmed the tumor-promoting effect of the microenvironment (FIG. 66).

NF-κB complex = assay: NF-κB activation in bleomycin-treated stromal cells (nuclear translocation, luciferase reporter); type: cell-based, human; settings: for NF-κB transcriptional activity (reporter vector): bleomycin plus inhibitor, luciferase reporter
Experimental: FIG. 22. The stromal cells pre-transduced with the NF-κB transcriptional luciferase reporter vector were treated with bleomycin and/or RAD001. The cells were collected on Day 7 and detected for the fluorescence signal intensity of the reporter vector.
FIG. 32. Detection of NF-kB transcriptional activity based on the reporter vector. Stromal cells were treated with bleomycin along with the PI3K small molecule inhibitor LY294002 (1 μM), Akt inhibitor MK-2206 (100 nM), mTOR inhibitor RAD001 (50 nM), p38 inhibitor SB203580 (10 μM) and TAK1 inhibitor 5Z-7 (500 nM), respectively, and cell lysates were used for determining luciferase activity.
The […] vector pBABE-puro-IκBα-mut (Super repressor) containing two phosphorylated mutant sites of IKK at S32A and S34A on the IκBα protein encoding sequence were used for transfection of lentivirus-packing cell line phoenix. Lentiviruses were subsequently used to infect PSC27 stromal cell line, whereas 1 μg/ml puromycin was used to screen positive clones. As another method, 5 μm of the small molecule inhibitor Bay11-7082 (purchased from Selleck) was used for NF-κB activity control. Stromal cells were subsequently exposed to several different forms of cytotoxicity, with the resulting phenotype recorded in time, and the relevant gene expression analyzed. The resulted conditioned culture medium produced from cells processed in this way was collected for various detection of epithelial cells.
Even so, is TAK1 activated indirectly by upstream DDR signaling associated with activation of a core transcription factor, NF-κB complex involved in the broad-spectrum expression of the SASP? The NF-κB complex was previously reported to be mediated by mono-ubiquitination of IκB kinase subunit γ (IKKγ) in cytoplasm. After isolating nucleus from cytoplasmic proteins using a kit, the inventor finds that TAK1 phosphorylation is associated with nuclear translocation of p50 and p65, the two main subunits of NF-κB complex (FIG. 4).

mTOR = molecular target: T1, mTOR (Homo sapiens, UniProt P42345+P62942); assay: Western blot of Akt/mTOR pathway activation in bleomycin-treated stromal cells; type: cell-based
T1 construct: endogenous in cells; host or cells: PSC27 human prostate stromal cells
Experimental: (§1) The nitrocellulose filter membrane was blocked at room temperature for 1 h in the blocking solution (TBST containing 5% skim milk powder (0.1% Tween-20 in TBS)), incubated overnight at 4° C. in a primary antibody solution, rinsed at TBST room temperature for 3 times, each for 2 min. The corresponding secondary antibody conjugated with HRP prepared with the blocking solution was added, the filter membrane was incubated at room temperature for 0.5 h. The filter membrane was rinsed with PBST at room temperature for 3 times, each for 2 min.

IL-8 = IL-8 protein expression of damaged stromal cells (Western blot, ELISA); type: cell-based, human; settings: ELISA of extracellular fluid, bleomycin plus inhibitor
Experimental: FIG. 15. The stromal cells were collected on Day 7 after bleomycin and/or 5Z-7 treatment. The lysates were analyzed by Western blot for their phosphorylation levels of ATM and TAK1, and activation of TAK1 downstream substrate JN K and p38. IL-8, a chemokine was used as a marker secreted factor of SASP, whose expression level was simultaneously analyzed. FIG. 33. The extracellular fluid released by each group of cells were tested by ELISA to determine the protein expression level of the secreted factor IL-8.

TAK1 = molecular target: T2, TAK1 (Homo sapiens, UniProt O43318); assay: IP, in vitro kinase assay and Western blot of TAK1 activation in damaged PSC27 stromal cells; type: cell-based; settings: PSC27 cells treated with IL-1α (20 ng/ml)
T2 construct: PSC27 cells were treated with bleomycin and cell lysates were subject to anti-p-TAK1-mediated IP precipitation; endogenous in cells; host or cells: PSC27 human prostate stromal cells
T2 sequence (O43318 1-606): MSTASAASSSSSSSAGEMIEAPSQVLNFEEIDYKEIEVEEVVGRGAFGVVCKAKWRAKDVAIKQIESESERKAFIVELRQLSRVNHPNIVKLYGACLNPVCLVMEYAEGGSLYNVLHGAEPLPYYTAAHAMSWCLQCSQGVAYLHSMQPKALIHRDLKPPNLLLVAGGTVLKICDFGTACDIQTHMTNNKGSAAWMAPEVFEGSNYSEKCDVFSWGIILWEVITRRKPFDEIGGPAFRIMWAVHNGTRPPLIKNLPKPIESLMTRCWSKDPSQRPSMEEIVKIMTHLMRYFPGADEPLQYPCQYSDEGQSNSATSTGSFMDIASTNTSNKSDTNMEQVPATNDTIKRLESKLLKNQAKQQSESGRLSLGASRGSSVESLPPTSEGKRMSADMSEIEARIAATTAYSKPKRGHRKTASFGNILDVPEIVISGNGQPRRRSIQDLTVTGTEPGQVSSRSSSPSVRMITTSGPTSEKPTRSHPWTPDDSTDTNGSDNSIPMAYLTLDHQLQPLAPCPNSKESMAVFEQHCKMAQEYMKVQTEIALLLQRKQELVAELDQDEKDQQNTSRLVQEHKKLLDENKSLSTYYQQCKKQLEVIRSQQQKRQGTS
Experimental: In the presence of the TAK1 inhibitor 5Z-7, PSC27 cells were treated with bleomycin and cell lysates were subject to anti-p-TAK1-mediated IP precipitation. IP products were analyzed by in vitro kinase assay, and MKK6 was used as TAK1 substrate. p38 phosphorylation was analyzed by Western blot with GAPDH as the loading control. In addition, IL-1α (20 ng/ml) was used to treat stromal cells and was further analyzed by similar IP and in vitro kinase assay.

p38MAPK, JNK, ATM = assay: Western blot of JNK, p38MAPK and ATM phosphorylation in damaged stromal cells; type: cell-based, human; settings: bleomycin and/or SB203580
Experimental: as §1

CO[C@H]1C[C@@H]2CC[C@@H](C)[C@@](O)(O2)C(=O)C(=O)N2CCCC[C@H]2C(=O)O[C@H]([C@H](C)C[C@@H]2CC[C@@H](OCCO)[C@H](OC)C2)CC(=O)[C@H](C)/C=C(\C)[C@@H](O)[C@@H](OC)C(=O)[C@H](C)C[C@H](C)/C=C/C=C/C=C/1C [RAD001]
cell cycle arrest and SA-β-Gal activity (PSC27 cells; bleomycin-damaged stromal cells in the presence of RAD001): remained unaffected
single-cell level of DDR foci (PSC27 cells; bleomycin-treated cells, presence or absence of inhibitor): remained unchanged
further decrease in terminal tumor volume ([1]; end of Week 8): 44%
phosphorylation of IKKβ, degradation of IRAK1 and IkBα, nuclear translocation of p65 and p50 (NF-κB complex; after DNA damage, RAD001 added to the medium): largely abolished
NF-κB transcriptional activity (reporter vector) (NF-κB complex): significantly attenuated
activation of mTOR substrates S6K1 and 4E-BP1 (mTOR; bleomycin and/or RAD001, Day 7): inhibition of S6K1 and 4E-BP1 activation

NC1(c2ccc(-c3nc4ccn5c(=O)[nH]nc5c4cc3-c3ccccc3)cc2)CCC1 [MK-2206]
NF-κB transcriptional activity (reporter vector) (NF-κB complex): significantly reduced
activity of mTOR (mTOR; simultaneous treatment of bleomycin and MK-2206): significantly downregulated
chemokine IL-8 protein levels induced by DNA damage (IL-8): significantly reduced

O=C1c2c(O)ccc(O)c2C(=O)c2c(NCCNCCO)ccc(NCCNCCO)c21 [mitoxantrone]
decrease in terminal tumor volume ([1]; end of Week 8): 37%
decrease in terminal tumor volume ([1]; end of Week 8, listed as MIT): 37% and 36%

IL-1α: cytokine, known upstream regulatory factor for TAK1
TAK1/MKK6 interaction (TAK1): significantly enhanced
p38 kinase activity (TAK1): significantly increased

C[S+]([O-])c1ccc(-c2nc(-c3ccncc3)c(-c3ccc(F)cc3)[nH]2)cc1 (centres unmarked) [SB203580]
phosphorylation level of p38 (p38MAPK, JNK, ATM): significantly reduce
further decrease in terminal tumor volume ([1]; end of Week 8): 46%
NF-κB transcriptional activity (reporter vector) (NF-κB complex): significantly reduced
chemokine IL-8 protein levels induced by DNA damage (IL-8): significantly reduced
